Values of other authors as cited in article PMC3792642 (Acta Crystallographica Section D: Biological Crystallography, 2013).

Experiments:
[1] = system: Mtb; details: VKOR-dependent manner; ref Dutton et al., 2010; cited from earlier work
[2] = system: MtbVKOR; details: ref Dutton et al., 2010; cited from earlier work

SMILES: CC(=O)CC(c1ccccc1)c1c(O)c2ccccc2oc1=O (centres unmarked) [warfarin]
- Inhibition of growth of Mtb [1]: inhibit growth of Mtb
- Inhibition of MtbVKOR [2]: inhibit MtbVKOR
